# Results published in ChEMBL document CHEMBL2040547, “Synthesis of natural flutimide and analogous fully substituted pyrazine-2,6-diones, endonuclease inhibitors of influenza virus” (J Org Chem, 2001).
# Biological target: Polymerase acidic protein (Influenza A virus (A/Puerto Rico/8/1934(H1N1)), UniProt P03433)
# Assay: Inhibition of cap 1 ALMV primed Influenza transcriptase
row,Compound,IC50
1,COCON1C(=O)C(Cc2ccccc2)=N/C(=C\C(C)C)C1=O,> 200 µM
2,COCON1C(=O)C(CC(C)C)=N/C(=C\C(C)C)C1=O,> 200 µM
3,COCON1C(=O)/C(=C\C(C)C)N(Cc2ccccc2)[C@@H](CC(C)C)C1=O,> 200 µM
4,COCON1C(=O)C(CC(C)C)=N/C(=C\c2ccccc2F)C1=O,> 200 µM
5,COCON1C(=O)C(Cc2ccccc2)=N/C(=C\c2ccc(F)cc2)C1=O,> 200 µM
6,CC(C)CC1=N/C(=C\c2ccc(F)cc2)C(=O)NC1=O,> 200 µM
7,COCON1C(=O)C(Cc2ccccc2)=N/C(=C\c2ccc(OC)cc2)C1=O,> 200 µM
8,COCON1C(=O)/C(=C\C(C)C)N(Cc2ccccc2)[C@@H](Cc2ccccc2)C1=O,> 200 µM
9,COCON1C(=O)C(CC(C)C)=N/C(=C\c2ccc(OC)cc2)C1=O,> 200 µM
10,COCON1C(=O)C(CC(C)C)=N/C(=C\c2ccccc2)C1=O,> 200 µM
11,COCON1C(=O)[C@H]([C@H](O)C(C)C)N(Cc2ccccc2)[C@@H](Cc2ccccc2)C1=O,> 200 µM
12,COCON1C(=O)C(CC(C)C)=N/C(=C\c2cccc(F)c2)C1=O,> 200 µM
13,COCON1C(=O)/C(=C/c2ccccc2F)N(Cc2ccccc2)[C@@H](CC(C)C)C1=O,> 200 µM
14,CC(C)/C=C1\N=C(CC(C)C)C(=O)N(O)C1=O,5.1 µM
15,COCON1C(=O)C(CC(C)C)=N/C(=C\c2ccc(F)cc2)C1=O,> 200 µM
16,COCON1C(=O)[C@H]([C@H](O)C(C)C)N(Cc2ccccc2)[C@@H](CC(C)C)C1=O,> 200 µM
17,O=C1C(Cc2ccccc2)NC(Cc2ccc(F)cc2)C(=O)N1O (stereo not drawn),85 µM
18,COCON1C(=O)[C@H]([C@@H](O)C(C)C)N(Cc2ccccc2)[C@@H](Cc2ccccc2)C1=O,> 200 µM
